Measured values as given in US10517889B2, “Modulators of SMAD7 expression” (Ionis Pharmaceuticals, Inc., priority 2017, dated 2019).

Legend:
[1] = test system: human SMAD7 mRNA; assay: Dose-dependent inhibition of human SMAD7 mRNA expression in A431 cells, oligonucleotide added without transfection (Example 5, Study 1); type: cell-based; conditions: approximately 48 hours; for IC50: SMAD7 mRNA
Procedure, shortened: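 A431 cells dosed with antisense oligonucleotide at 0.08–20.00 μM by free uptake immediately after plating, 48 h at 37° C. SMAD7 mRNA quantified by qRT-PCR (primer probe set RTS5062), normalised to RiboGreen total RNA. Values are % inhibition versus untreated cells.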

[2] = test system: murine Smad7 mRNA; assay: Dose-dependent inhibition of murine Smad7 mRNA in bEND cells, electroporation (Example 5, Study 2); type: cell-based, mouse; conditions: electroporation; for % inhibition of SMAD7 mRNA expression: approximately 16 hours
Procedure, shortened: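 Mouse bEND cells electroporated with oligonucleotide at several doses and treated for approximately 16 hours. Smad7 mRNA quantified by real-time RT-PCR (primer probe set RTS1114), normalised to total RNA by RiboGreen. Reported as percent inhibition relative to untreated cells.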

[3] = Plasma chemistry markers after subcutaneous administration in CD-1 mice (Example 6); type: in vivo; conditions: CD-1 mice plasma at day 46; 50 mg/kg subcutaneously twice a week for 7 weeks
Protocol: CD-1® mice (Charles River, Mass.) are a multipurpose mice model, frequently utilized for safety and efficacy testing. The mice were treated with Ionis human SMAD7 antisense oligonucleotides selected from studies described above and evaluated.
Groups of 8-9 week old male CD-1 mice were injected subcutaneously twice a week for 7 weeks with 50 mg/kg of Ionis oligonucleotides (100 mg/kg/week dose). Each group contained 4 mice. One group of male CD-1 mice was injected subcutaneously twice a week for 7 weeks with PBS. […]

[4] = Organ weights after subcutaneous administration in CD-1 mice (Example 6); type: in vivo; conditions: end of study, 50 mg/kg subcutaneously twice a week for 7 weeks
Protocol: (§1) Groups of 8-9 week old male CD-1 mice were injected subcutaneously twice a week for 7 weeks with 50 mg/kg of Ionis oligonucleotides (100 mg/kg/week dose). Each group contained 4 mice. One group of male CD-1 mice was injected subcutaneously twice a week for 7 weeks with PBS. Plasma was collected for analysis on day 28.
Ionis SMAD7 oligonucleotides that caused any changes in organ weights outside the expected range for antisense oligonucleotides were excluded from further studies.

[5] = Hematology assays after subcutaneous administration in CD-1 mice (Example 6); type: in vivo; set-up: RBC / Eosinophils / Monocytes: unit not given here; conditions: 50 mg/kg subcutaneous twice weekly for 7 weeks
Protocol: as §1
Blood obtained from all mouse groups was measured by an ADVIA2120i hematology analyzer (Siemens, USA) for measurements of the various blood cells, as well as other hematology markers.

[6] = test system: mouse Smad7 mRNA; assay: Murine Smad7 mRNA expression after oral administration in BALB/c mice (Example 11); type: in vivo; conditions: 500 mg/kg/day oral for 3 weeks, 24 hours after last dose
Protocol: The objective of this study was to evaluate the efficacy of Ionis SMAD7 antisense oligonucleotides in BALB/c mice following daily oral administration. The Ionis oligonucleotides are cross-reactive with mouse Smad7 mRNA.
Groups of BALB/c mice were orally administered 500 mg/kg/day for 3 weeks of human Smad7 oligonucleotides, ION 790615, ION 798781, or ION 830025, or mouse Smad7 oligonucleotide, ION 772797 (a 3-10-3 cEt gapmer with phosphorothioate backbone and sequence […]; designated herein as SEQ ID NO: 2743). One group of mice was orally administered PBS daily for 3 weeks. Each group contained 4 mice.
To evaluate the efficacy of the oligonucleotides, murine Smad7 mRNA expression in the liver, kidneys, duodenum, ileum, and colon was measured using primer probe set RTS1114.

[7] = Pharmacokinetics: oligonucleotide concentration in the plasma on day 28 after oral gavage in beagle dogs (Example 12); type: in vivo; conditions: 200 mg oral gavage
Protocol: There were 4 animals per group.
Plasma concentrations of Ionis oligonucleotides were also measured on Day 28 at various time points.

[8] = Organ weights after oral gavage in beagle dogs (Example 12); conditions: 200 mg oral gavage for 4 weeks, day 30
Protocol: (§2) Groups of 24-25 week old male beagle dogs were administered 200 mg Ionis human SMAD7 oligonucleotide by oral gavage once a week for 4 weeks. There were 4 animals per group. A control group of dogs received oral administration of distilled water. Dogs were sacrificed on day 30 approximately 48 hours after the final dose and organs and plasma were harvested for further analysis.

[9] = Plasma chemistry markers after oral gavage in beagle dogs (Example 12); conditions: 200 mg oral gavage for 4 weeks, plasma at day 30
Protocol: The study was conducted to evaluate the tolerability and pharmacodynamics of select human SMAD7 antisense oligonucleotides in beagle dogs following 4 weeks of treatment. The dogs were administered oligonucleotides by oral gavage.
as §2
To evaluate the effect of Ionis SMAD7 oligonucleotides on liver and kidney function, approximately 1.5 mL of blood samples were collected and put into tubes without anticoagulant for serum separation. The tubes were kept at room temperature for a minimum of 90 min and then centrifuged (approximately 3,000 rpm for 10 min) to obtain serum. Plasma levels of transaminases, albumin, bilirubin, and BUN were measured using an automated clinical chemistry analyzer (Toshiba 200FR Neo chemistry analyzer, Toshiba Co., Japan).

830037 (antisense CTATTGGCTGATCTGG; 3-10-3 cEt gapmer, further chemistry not given here) [compound 830037]
% inhibition of SMAD7 mRNA expression ([1]; 0.08 μM): 10% | % inhibition of SMAD7 mRNA expression ([1]; 0.25 μM): 31% | % inhibition of SMAD7 mRNA expression ([1]; 0.74 μM): 29% | % inhibition of SMAD7 mRNA expression ([1]; 2.22 μM): 42% | % inhibition of SMAD7 mRNA expression ([1]; 6.67 μM): 61% | % inhibition of SMAD7 mRNA expression ([1]; 20.00 μM): 67% | IC50 [1]: 3.4 µM | % inhibition of SMAD7 mRNA expression ([2]; 0.25 μM): 0% | % inhibition of SMAD7 mRNA expression ([2]; 0.74 μM): 6% | % inhibition of SMAD7 mRNA expression ([2]; 2.22 μM): 1% | % inhibition of SMAD7 mRNA expression ([2]; 6.67 μM): 0% | % inhibition of SMAD7 mRNA expression ([2]; 20.00 μM): 0% | IC50 [2]: > 20 µM

829994 (GGAGGCAGGGCCGCGA; 3-10-3 cEt gapmer, further chemistry not given here) [compound 829994]
ALT [3]: 65 IU/L | AST [3]: 90 IU/L | Albumin [3]: 2.9 g/dL | BUN [3]: 25 mg/dL | Organ weights, Kidneys [4]: 0.7 g | Organ weights, Liver [4]: 2.6 g | Organ weights, Spleen [4]: 0.3 g | Eosinophils [5]: 1.3 | Hematocrit [5]: 36.6% | Hemoglobin [5]: 12.0 g/dL | Lymphocytes [5]: 79.4% | MCH [5]: 15.5 pg | MCHC [5]: 32.7 g/dL | MCV [5]: 47.3 fL | Monocytes [5]: 3.0 | Neutrophils [5]: 16.4% | RBC [5]: 7.7 | Reticulocytes [5]: 3.7% | WBC [5]: 5.0 10^3/μL | platelets [5]: 841.3 10^3/μL

830121 (AGAATCAAGCCCTGGC; 3-10-3 cEt gapmer, further chemistry not given here) [compound 830121]
% inhibition of SMAD7 mRNA expression ([1]; 0.08 μM): 11% | % inhibition of SMAD7 mRNA expression ([1]; 0.25 μM): 18% | % inhibition of SMAD7 mRNA expression ([1]; 0.74 μM): 27% | % inhibition of SMAD7 mRNA expression ([1]; 2.22 μM): 21% | % inhibition of SMAD7 mRNA expression ([1]; 6.67 μM): 35% | % inhibition of SMAD7 mRNA expression ([1]; 20.00 μM): 44% | IC50 [1]: > 20 µM | % inhibition of SMAD7 mRNA expression ([2]; 0.25 μM): 0% | % inhibition of SMAD7 mRNA expression ([2]; 0.74 μM): 6% | % inhibition of SMAD7 mRNA expression ([2]; 2.22 μM): 12% | % inhibition of SMAD7 mRNA expression ([2]; 6.67 μM): 17% | % inhibition of SMAD7 mRNA expression ([2]; 20.00 μM): 20% | IC50 [2]: > 20 µM | ALT [3]: 198 IU/L | AST [3]: 151 IU/L | Albumin [3]: 1.9 g/dL | BUN [3]: 21 mg/dL | Organ weights, Kidneys [4]: 0.6 g | Organ weights, Liver [4]: 2.4 g | Organ weights, Spleen [4]: 0.2 g | Eosinophils [5]: 3.5 | Hematocrit [5]: 40.4% | Hemoglobin [5]: 13.6 g/dL | Lymphocytes [5]: 75.3% | MCH [5]: 15.3 pg | MCHC [5]: 33.6 g/dL | MCV [5]: 45.5 fL | Monocytes [5]: 5.1 | Neutrophils [5]: 15.8% | RBC [5]: 8.9 | Reticulocytes [5]: 4.5% | WBC [5]: 10.1 10^3/μL | platelets [5]: 765.0 10^3/μL | Basophils ([5]; n.d. = below detection levels): 0.3 10^3/μL

798781 (CGTAAGATTCACAGCA; 3-10-3 cEt gapmer, further chemistry not given here) [compound 798781]
% inhibition of SMAD7 mRNA expression ([1]; 0.08 μM): 23% | % inhibition of SMAD7 mRNA expression ([1]; 0.25 μM): 34% | % inhibition of SMAD7 mRNA expression ([1]; 0.74 μM): 41% | % inhibition of SMAD7 mRNA expression ([1]; 2.22 μM): 41% | % inhibition of SMAD7 mRNA expression ([1]; 6.67 μM): 57% | % inhibition of SMAD7 mRNA expression ([1]; 20.00 μM): 62% | IC50 [1]: 3.6 µM | % inhibition of SMAD7 mRNA expression ([2]; 0.25 μM): 0% | % inhibition of SMAD7 mRNA expression ([2]; 0.74 μM): 0% | % inhibition of SMAD7 mRNA expression ([2]; 2.22 μM): 20% | % inhibition of SMAD7 mRNA expression ([2]; 6.67 μM): 33% | % inhibition of SMAD7 mRNA expression ([2]; 20.00 μM): 51% | IC50 [2]: 19.8 µM | ALT [3]: 40 IU/L | AST [3]: 66 IU/L | Albumin [3]: 2.2 g/dL | BUN [3]: 26 mg/dL | Organ weights, Kidneys [4]: 0.6 g | Organ weights, Liver [4]: 2.3 g | Organ weights, Spleen [4]: 0.1 g | Eosinophils [5]: 2.4 | Hematocrit [5]: 42.3% | Hemoglobin [5]: 13.8 g/dL | Lymphocytes [5]: 73.7% | MCH [5]: 14.9 pg | MCHC [5]: 32.6 g/dL | MCV [5]: 45.8 fL | Monocytes [5]: 5.2 | Neutrophils [5]: 18.8% | RBC [5]: 9.3 | Reticulocytes [5]: 3.3% | WBC [5]: 4.9 10^3/μL | platelets [5]: 867.3 10^3/μL | Mouse Smad7 mRNA expression (% inhibition), Colon ([6]; colon): 0 % inhibition | Mouse Smad7 mRNA expression (% inhibition), Duodenum ([6]; duodenum): 47 % inhibition | Mouse Smad7 mRNA expression (% inhibition), Ileum ([6]; ileum): 0 % inhibition | Mouse Smad7 mRNA expression (% inhibition), Kidney ([6]; kidney): 12 % inhibition | Mouse Smad7 mRNA expression (% inhibition), Liver ([6]; liver): 0 % inhibition | Oligonucleotide concentration in the plasma on day 28 ([7]; 2 hr): 18.7 ng/mL | Oligonucleotide concentration in the plasma on day 28 ([7]; 4 hr): 5.4 ng/mL | Oligonucleotide concentration in the plasma on day 28 ([7]; 8 hr): 3.6 ng/mL | Oligonucleotide concentration in the plasma on day 28 ([7]; 24 hr): 0.4 ng/mL | Kidney weight (% of control) [8]: 86 % of control | Liver weight (% of control) [8]: 91 % of control | Spleen weight (% of control) [8]: 102 % of control | ALT (% of control) [9]: 115 % of control | AST (% of control) [9]: 114 % of control | Albumin (% of control) [9]: 101 % of control | BUN (% of control) [9]: 104 % of control | Bilirubin (% of control) [9]: 114 % of control
